# Experimental data as given in the NIST ThermoML archive (doi:10.1021/je700234e).
# Numbers after ± are expanded uncertainties.
# Columns and labels:
# [1] = Crystal; DTA
# [2] = Molar enthalpy of transition or fusion; conditions: Crystal; DSC
structure (smiles),measurement,setting,value
O=S1(=O)c2ccccc2-c2ccccc21 [dibenzothiophene sulfone],Normal melting temperature,[1],236.1 ± 0.5 °C
same,Molar enthalpy of transition or fusion,[2],6.49 ± 0.196 kcal/mol
